Results published in PubChem BioAssay (NCI).
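Test compounds were applied to cells in 96-well plates for 48 hours at 5 doses. At the GI50, growth is halved. TGI marks complete inhibition of growth.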

Key:
Assay in all cases: NCI-60 cell line screen, 48 h
HCT-15 colon = test system: HCT-15 colon
IGROV1 ovarian = test system: IGROV1 ovarian
MDA-MB-435 = test system: MDA-MB-435
RXF 393 renal = test system: RXF 393 renal
SF-539 CNS = test system: SF-539 CNS
SK-MEL-5 melanoma = test system: SK-MEL-5 melanoma
SW-620 colon = test system: SW-620 colon
CCRF-CEM leukemia = test system: CCRF-CEM leukemia

Structure (SMILES)	TGI (HCT-15 colon)	TGI (IGROV1 ovarian)	TGI (MDA-MB-435)	TGI (RXF 393 renal)	TGI (SF-539 CNS)	TGI (SK-MEL-5 melanoma)	TGI (SW-620 colon)	TGI (CCRF-CEM leukemia)	GI50 (CCRF-CEM leukemia)	GI50 (HCT-15 colon)	GI50 (MDA-MB-435)	GI50 (RXF 393 renal)	GI50 (SF-539 CNS)	GI50 (SK-MEL-5 melanoma)	GI50 (SW-620 colon)	GI50 (IGROV1 ovarian)
CCn1c(CCl)nc2c1C(=O)c1ccccc1C2=O	3.19 µM	3.86 µM	3.12 µM	3.29 µM	4.89 µM	2.84 µM	2.75 µM									
C/C(=N\NC(=S)N1CCCCCC1)c1cccc2cccnc12	> 21.9 µM	> 94.1 µM	> 100 µM	> 100 µM	5.65 µM		> 100 µM	> 100 µM								
COc1cnc2c(c1)C(=O)c1c-2n(CCCN2CCC(O)CC2)c(=O)c2cc(Cl)ccc12	2.55 µM		25.7 µM	1.72 µM	1.64 µM	20.4 µM	2.62 µM	> 100 µM	0.066 µM	1.17 µM	12.9 µM	0.347 µM	0.433 µM	1.92 µM	0.253 µM	
COc1ccc(NCC(=O)Nn2c(-c3ccccc3)nc3ccccc3c2=O)cc1	> 100 µM	> 100 µM	> 100 µM	> 10 µM	> 100 µM	32.8 µM	82.9 µM	> 100 µM								
CC(=O)NC1=NC(=O)/C(=C/c2ccc(/C=C3/C(=O)N=C(NC(C)=O)N3C)cc2)N1C	> 100 µM	> 100 µM	> 100 µM	> 100 µM	> 100 µM	> 100 µM	> 100 µM									
CC1SC2(CCCCC2)N(NC(=O)c2[nH]c3ccc(Br)cc3c2-c2ccccc2)C1=O (stereo not given)	> 100 µM	28.4 µM	> 100 µM	69.2 µM	> 100 µM	> 100 µM	> 100 µM	> 100 µM	7 µM	> 100 µM	30.1 µM	13.7 µM	> 100 µM	> 100 µM	> 100 µM	4.02 µM
CC(C)(C)OC(=O)NCc1cccc(N=C=S)c1	36.5 µM	41.8 µM	63.1 µM	36.1 µM	59.7 µM	28.4 µM	47.7 µM	55.9 µM	21 µM	16.6 µM	18.5 µM	16.8 µM	21.1 µM	14.9 µM	18.9 µM	19.3 µM
c1ccc2c(c1)cc1n2CCc2c-1[nH]c1ccccc21	> 10 µM	> 10 µM	> 10 µM	> 10 µM	> 10 µM	> 10 µM	> 10 µM	> 10 µM								
COc1cc(Cl)cc(-c2nn(-c3cccc(NC(=O)Nc4ccc(Cl)c(Cl)c4)c3)cc2-c2ccncc2)c1	31.5 µM	> 100 µM	6 µM	7.25 µM	13.2 µM	3.17 µM	> 100 µM	6 µM	2 µM	2.51 µM	2.08 µM	1.96 µM	2.6 µM	1.62 µM	3.43 µM	4.35 µM
CCCCOC1OC(COC(=O)C(C)C)C(OC(=O)C(C)C)C(O)C1OC1OC(C)C(OC(=O)CCC)C(OC(=O)C(C)C)C1O (stereo not given)	27.3 µM	58.5 µM	27.6 µM	31.2 µM	34.8 µM	26.5 µM	27.8 µM	24.1 µM	10.8 µM	14.2 µM	14.5 µM	8.41 µM	20.5 µM	13.6 µM	14.7 µM	22.7 µM
CCSC[C@@H]1C[C@](O)(c2ccc(F)cc2)[C@@H](c2ccc(F)cc2)O1	33 µM	32.8 µM	37.8 µM	45.7 µM	31.1 µM	28 µM	31.4 µM	30.2 µM	12.5 µM	17.4 µM	17.7 µM	20.2 µM	17 µM	14.8 µM	16.7 µM	14.5 µM
COC(=O)[C@H](Cc1cn(C)cn1)NC(=O)[C@H](C)NC(=O)Nc1cc(C(F)(F)F)cc(C(F)(F)F)c1	> 10 µM	> 10 µM	> 10 µM	> 10 µM	> 10 µM	> 10 µM	> 10 µM	> 10 µM	> 10 µM	> 10 µM	> 10 µM	> 10 µM	> 10 µM	> 10 µM	> 10 µM	> 10 µM
Cn1cc(C2=C(Nc3ccccc3)C(=O)NC2=O)c2ccccc21	> 25 µM	> 25 µM	> 25 µM	> 25 µM	> 25 µM	> 25 µM	> 25 µM	> 25 µM	> 25 µM	24.8 µM	> 25 µM	> 25 µM	> 25 µM	> 25 µM	> 25 µM	> 25 µM
COC1CC(N)C(O)C(C)O1 (stereo not given)	> 100 µM	> 100 µM	> 100 µM	> 100 µM	> 100 µM	> 100 µM	> 100 µM	> 100 µM								
Cc1nc2ccccc2nc1N=Nc1ccccc1	> 100 µM	> 100 µM	48.8 µM	> 100 µM	> 100 µM	30.1 µM		> 100 µM	25 µM	16.3 µM	18.3 µM	23.4 µM	27.9 µM	16 µM		9.58 µM
Cc1cc(Cl)ccc1C(=O)c1ccc2ccccc2c1C(=O)O	> 100 µM	> 100 µM	> 100 µM	> 100 µM	> 100 µM	> 100 µM	> 100 µM	> 100 µM								
COc1cc2c(c(OC)c1OC)-c1ccc(N=NC(N)=S)c(=O)cc1[C@@H](NC(C)=O)CC2	> 100 µM		0.577 µM	> 100 µM		1.24 µM	> 100 µM	> 100 µM	0.535 µM	6 µM	0.216 µM	0.937 µM	0.311 µM	0.324 µM	0.421 µM	0.482 µM
Cc1ccc(-n2nnnc2-c2cnc(N3CCOCC3)nc2-c2cccc(C(F)(F)F)c2)cc1	8.57 µM	> 10.7 µM		> 14.5 µM	2.72 µM	3.42 µM	> 25.1 µM	2.55 µM	1.1 µM	3 µM		1.99 µM	1.16 µM	0.275 µM	1.93 µM	1.63 µM

Structure (SMILES)	TGI (HCT-15 colon)	TGI (IGROV1 ovarian)	TGI (MDA-MB-435)	TGI (RXF 393 renal)	TGI (SF-539 CNS)	TGI (SK-MEL-5 melanoma)	TGI (SW-620 colon)	TGI (CCRF-CEM leukemia)	GI50 (CCRF-CEM leukemia)	GI50 (HCT-15 colon)	GI50 (MDA-MB-435)	GI50 (RXF 393 renal)	GI50 (SF-539 CNS)	GI50 (SK-MEL-5 melanoma)	GI50 (SW-620 colon)	GI50 (IGROV1 ovarian)
C[C@@H](CO)NC(=O)c1cc(-c2ccc(Cl)cc2)nn(-c2cnn(C)c2)c1=O	> 100 µM	82.1 µM	> 100 µM	45.8 µM	48.3 µM	26 µM	> 100 µM	> 100 µM	22.1 µM	17.2 µM	50.3 µM	7.79 µM	16 µM	12.7 µM	22.9 µM	20.2 µM
Cc1cccc2c3c(sc12)C(c1ccc(F)cc1)C(C#N)=C(N)O3 (stereo not given)	10.7 µM	11.2 µM	0.0514 µM	0.0825 µM	0.679 µM	1.38 µM	14.2 µM	> 59.7 µM	0.0439 µM	0.0447 µM	0.0222 µM	0.0271 µM	0.0473 µM	0.111 µM	0.044 µM	0.0744 µM
CC(=O)/C=C/c1ccc(OCc2ccc(Cl)cc2)cc1	> 1000 µM	> 1000 µM	> 1000 µM	> 1000 µM	> 1000 µM	395 µM	> 1000 µM	> 1000 µM	577 µM	498 µM	228 µM	568 µM	> 1000 µM	140 µM	> 1000 µM	> 1000 µM
COC(=O)c1cc(OC)c(OC)c(OC)c1-c1cc2c(cc1C=O)OCO2	> 10 µM	> 10 µM	> 10 µM	> 10 µM	> 10 µM	> 10 µM	> 10 µM	> 10 µM								
O=C1CN(c2cccc(Cl)c2)C(=O)CN1NCNN1CC(=O)N(c2cccc(Cl)c2)CC1=O	> 100 µM	> 100 µM	> 100 µM	> 100 µM	> 100 µM	> 100 µM	> 100 µM	> 100 µM								
COc1ccc(CCN2CCC(CN(C)Cc3cnn(-c4ccccc4)c3)CC2)cc1	18.5 µM	> 100 µM	6.8 µM	24.1 µM	8.08 µM	14.9 µM	33.6 µM	78.6 µM	21 µM	4.49 µM	2.54 µM	7.74 µM	2.77 µM	3.96 µM	16.5 µM	25.6 µM
Cl.Fc1c[c-]c(-c2ccccn2)c(F)c1.[Pt].c1ccc([PH+](C[PH+](c2ccccc2)c2ccccc2)c2ccccc2)cc1			0.574 µM	0.741 µM	0.677 µM		0.494 µM				0.233 µM	0.251 µM	0.244 µM		0.197 µM	
CC(=O)Nc1n[n+]([O-])c2cc(C)ccc2[n+]1[O-]	14.9 µM	5.33 µM	20.8 µM	22.6 µM	5.36 µM	3.87 µM	17.5 µM	> 47.4 µM								
Cc1cc(O)c(C2=NN(c3ccc(S(N)(=O)=O)cc3)C(/C=C/c3ccccc3)C2)cc1Cl (stereo not given)	> 100 µM	19.8 µM	24 µM	20.2 µM	14 µM	16.4 µM	31.3 µM	50 µM	17.7 µM	18.9 µM	8.87 µM	6.69 µM	2.98 µM	4.23 µM	11.7 µM	4.32 µM
CC1(C)O[C@@H]2C[C@H]3[C@@H]4C[C@H](F)C5=CC(=O)C=C[C@]5(C)[C@@]4(F)[C@@H](O)C[C@]3(C)[C@]2(C(=O)CO)O1	> 100 µM	> 100 µM	> 100 µM	> 100 µM	> 100 µM	> 100 µM	> 100 µM	> 100 µM								
COc1ccc(C(=O)c2sc3nc(-c4cccs4)ccc3c2N)cc1OC	> 100 µM	> 100 µM	4.76 µM	> 100 µM	> 100 µM	5.28 µM	> 100 µM	> 100 µM	4.53 µM	2.81 µM	1.43 µM	9.98 µM	5.32 µM	2.01 µM	5.07 µM	7.72 µM
COc1ccc(-c2csc(NC(=O)CN3CCN(c4cc5c(cc4F)c(=O)c(C(=O)O)cn5C4CC4)CC3)n2)cc1	> 100 µM	> 100 µM	> 100 µM	27.7 µM	> 100 µM		> 100 µM	> 100 µM	3.59 µM	3.23 µM	3.39 µM	4.97 µM	3.61 µM		3.9 µM	7 µM
COC(=O)C(C(=O)OC)C(Br)C(Br)C(Br)c1ccccc1 (stereo not given)	11 µM	27 µM	20.7 µM	15.9 µM	33.7 µM		11.4 µM	5.79 µM	2.08 µM	2.83 µM	5.66 µM	4.17 µM	18.2 µM		3.29 µM	4.92 µM
Cc1[nH]c2cc(F)ccc2c1-c1nc2c3cccnc3c3ncccc3c2[nH]1	18.8 µM		1.48 µM	0.785 µM	1.29 µM	0.726 µM	1.84 µM	0.644 µM	0.0672 µM	0.359 µM	0.342 µM	0.19 µM	0.287 µM	0.169 µM	0.282 µM	
CC(=O)O[C@H]1CC[C@@]2(C)C(=C/C(=N/OCCN3CCCC3)[C@H]3[C@@H]4CC[C@H](OC(C)=O)[C@@]4(C)CC[C@@H]32)C1	45 µM	> 100 µM	> 100 µM		> 100 µM	31.9 µM	59.8 µM	> 100 µM	42.9 µM	20.1 µM	53 µM		> 100 µM	17.3 µM	24.1 µM	31.4 µM
CCOc1ccc2c(c1)c(CC(=O)O)cn2C	> 100 µM		> 100 µM	> 100 µM	> 100 µM			> 100 µM								
CN(C)c1cccc(F)c1C(=O)NC(=O)Nc1ccc(Cl)cc1	> 31.5 µM	> 100 µM	3.44 µM	69.6 µM	> 100 µM	> 100 µM	> 100 µM									
CC(C)(C)N/N=C(\C(=O)NC1=C(Cl)C(=O)c2ccccc2C1=O)C1C=CCS1(=O)=O (stereo not given)	22.9 µM	24.5 µM			54.2 µM		> 100 µM	> 100 µM								
